According to EPA's ToxValDB 9.5 (doi:10.2903/j.efsa.2013.3235):
“And” between values parts separate entries of the source, which are not always exact repeats. Identical values can stand only once.

Legend:
[1] = system: Coturnix japonica; conditions: acute; oral; mortality
[2] = system: Colinus virginianus
[3] = system: Rattus norvegicus; conditions: for LD50: acute, mortality
[4] = system: Anas platyrhynchos; conditions: short-term; oral; feed
[5] = system: Canidae; conditions: reproduction developmental; duration: 1 years; Dog Other
[6] = system: Mus musculus; conditions: acute; oral; mortality

O.O.[Cu] [Copper hydroxide (Cu(OH)2)]
LD50 [1]: 556 mg/kg
LD50 ([2]; acute, oral, mortality): 223 mg/kg
NOEL ([2]; reproduction developmental): 5.05 mg/kg-day and 5.12 mg/kg-day
NOEL ([2]; short-term, oral, diet): 124 mg/kg-day and 135 mg/kg-day
LD50 ([3]; F): 679 mg/kg
LD50 ([3]; M): 736 mg/kg
LD50 [3]: 439 mg/kg and 281 mg/kg
NOEL [4]: 216 mg/kg-day and 191 mg/kg-day

O=C([O-])[C@H](O)[C@@H](O)[C@H](O)[C@H](O)CO.O=C([O-])[C@H](O)[C@@H](O)[C@H](O)[C@H](O)CO.[Cu+2] [Copper gluconate]
NOEL [5]: 15 mg/kg-day
NOEL ([3]; chronic): 27 mg/kg-day

[Cu+].[Cu+].[O-2] [Cuprous oxide]
LD50 [1]: 1180 mg/kg
NOEL ([2]; short-term, oral, diet): 31.9 mg/kg-day
LD50 ([3]; oral): 261 mg/kg

[Cl-].[Cu+2].[Cu+2].[OH-].[OH-].[OH-] [Dicopper chloride trihydroxide]
LC50 ([2]; acute, oral, diet, mortality): 333 mg/kg-day
LD50 ([2]; acute, oral, mortality): 511 mg/kg
LD50 [6]: 171 mg/kg
LD50 ([3]; F): 548 mg/kg
LD50 ([3]; M): 693 mg/kg
LD50 [3]: 1080 mg/kg and 807 mg/kg
